From patent publication US8653087B2, “Pyrido [5, 4-D] pyrimidines as cell proliferation inhibitors” (Boehringer Ingelheim International GmbH, priority 2008, dated 2014)

Molecular target: B-Raf (V600E)-kinase (Homo sapiens (Human), UniProt P15056, V600E)
Assay: Kinase test B-RAF (V600E)
Format: biochemical
Details: B-RAF (V600E) kinase test, 250 μM ATP
Procedure: Kinase Test B-RAF (V600E)
In a dilution series 10 μL of test substance solution are placed in a multiwell plate. The dilution series is selected so that generally a range of concentrations of 2 μM to 0.119 nM or 0.017 nM is covered. If necessary the initial concentration of 2 μM is changed to 50 μM, 10 μM or 0.4 μM or 0.2857 μM and further dilution is carried out accordingly. The final concentration of DMSO is 5%. 10 μL of the B-Raf (V600E)-kinase solution are pipetted in (containing 0.5 ng B-Raf (V600E)-kinase in 20 mM Tris-HCl pH 7.5, 0.1 mM EDTA, 0.1 mM EGTA, 0.286 mM sodium orthovanadate, 10% glycerol, 1 mg/mL bovine serum albumin, 1 mM dithiothreitol) and the mixture is incubated for 24 h at RT under with shaking. The kinase reaction is started by the addition of 20 μL ATP solution [final concentration: 250 μM ATP, 30 mM Tris-HCl pH 7.5, 0.02% Brij, 0.2 mM sodium orthovanadate, 10 mM magnesium acetate, 0.1 mM EGTA, phosphatase cocktail (Sigma, # P2850, dilution recommended by the manufacturer), 0.1 mM EGTA] and 10 μL MEK1 solution [containing 50 ng biotinylated MEK1 (prepared from purified MEK1 according to standard procedure, e.g. with EZ-Link Sulpho-NHS-LC-Biotin reagent, Pierce, #21335) and carried out for 60 min at RT with constant shaking. The reaction is stopped by the addition of 12 μL of a 100 mM EDTA solution and incubation is continued for a further 5 min. 55 μL of the reaction solution are transferred into a streptavidin-coated plate (e.g. Streptawell HighBond, Roche, #11989685001) and shaken gently for 1 h at RT, in order to bind biotinylated MEK1 to the plate. After elimination of the liquid the plate is washed five times with 200 μL of 1×PBS and 100 μL solution of primary antibody plus europium-labelled secondary antibody [Anti Phospho-MEK (Ser217/221), Cell Signaling, #9121 and Eu-N1 labeled goat-anti-rabbit antibody, Perkin Elmer, # AD0105], the primary antibody is diluted 1:2000 and the secondary antibody is diluted to 0.4-0.5 μg/mL in Delfia Assay Buffer (Perkin Elmer, #1244-111). After 1 h shaking at RT the solution is poured away and washed five times with 200 μL Delfia Wash Buffer (Perkin Elmer, #4010-0010/#1244-114). After the addition of 200 μL Enhancement Solution (Perkin Elmer, #4001-0010/#1244-105) the mixture is shaken for 10 min at RT and then measured in a Wallac Victor using the program “Delfia Time Resolved Fluorescence (Europium)”. IC50 values are obtained from these dosage-activity curves using a software program (GraphPadPrizm).

B-Raf (V600E)-kinase, sequence (P15056 whole entry V600E): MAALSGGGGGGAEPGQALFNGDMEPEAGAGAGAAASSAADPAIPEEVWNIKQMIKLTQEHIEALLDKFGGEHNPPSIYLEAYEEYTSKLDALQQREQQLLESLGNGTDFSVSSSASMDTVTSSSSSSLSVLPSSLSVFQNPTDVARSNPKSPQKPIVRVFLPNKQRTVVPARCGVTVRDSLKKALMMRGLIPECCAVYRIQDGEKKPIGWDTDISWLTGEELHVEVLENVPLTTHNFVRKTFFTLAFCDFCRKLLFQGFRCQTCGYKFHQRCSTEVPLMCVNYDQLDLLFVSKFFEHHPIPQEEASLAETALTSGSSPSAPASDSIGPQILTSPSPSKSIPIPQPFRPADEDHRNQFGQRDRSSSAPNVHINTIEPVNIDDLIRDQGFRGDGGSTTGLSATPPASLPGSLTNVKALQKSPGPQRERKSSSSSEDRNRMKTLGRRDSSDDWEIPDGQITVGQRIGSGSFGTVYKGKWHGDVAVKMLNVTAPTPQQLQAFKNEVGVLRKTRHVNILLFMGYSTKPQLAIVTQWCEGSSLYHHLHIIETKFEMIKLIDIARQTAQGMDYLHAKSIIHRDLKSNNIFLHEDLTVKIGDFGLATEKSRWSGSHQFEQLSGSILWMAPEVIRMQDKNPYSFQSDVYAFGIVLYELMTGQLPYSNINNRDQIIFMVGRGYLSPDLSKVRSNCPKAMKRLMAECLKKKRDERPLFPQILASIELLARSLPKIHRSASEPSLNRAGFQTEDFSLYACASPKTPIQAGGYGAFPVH

SMILES	IC50 [nM]
Cc1ccc(NC(=O)c2cccc(C(F)(F)F)c2)cc1Nc1ncnc2c(N)nc(N(C)C)nc12 [II-7]	15
Cc1ccc(NC(=O)c2cccc(C(F)(F)F)c2)cc1Nc1ncnc2c(N)nc(N3CCN(C4CCN(C)CC4)CC3)nc12 [II-8]	2
Cc1ccc(NC(=O)c2cccc(C(F)(F)F)c2)cc1Nc1ncnc2c(N)nc(N3CCN(C4CCCC4)CC3)nc12 [II-9]	24
Cc1ccc(NC(=O)c2cccc(C(F)(F)F)c2)cc1Nc1ncnc2c(N)nc(N3CCCN(C4CC4)CC3)nc12 [II-10]	25
Cc1ccc(NC(=O)c2cccc(C(F)(F)F)c2)cc1Nc1ncnc2c(N)nc(N3CCCNCC3)nc12 [II-11]	20
Cc1ccc(NC(=O)c2cccc(C(F)(F)F)c2)cc1Nc1ncnc2c(N)nc(N3CCCN(c4ccncc4)CC3)nc12 [II-12]	7
Cc1ccc(NC(=O)c2cccc(C(F)(F)F)c2)cc1Nc1ncnc2c(N)nc(N3C[C@H](C)NC[C@H]3C)nc12 [II-13]	7
Cc1ccc(NC(=O)c2cccc(C(F)(F)F)c2)cc1Nc1ncnc2c(N)nc(N3CCN(CC4CCN(C)CC4)CC3)nc12 [II-14]	4
Cc1ccc(NC(=O)c2cccc(C(F)(F)F)c2)cc1Nc1ncnc2c(N)nc(N3CC(C)NC(C)C3)nc12 (centres unmarked) [II-15]	40
Cc1ccc(NC(=O)c2cccc(C(F)(F)F)c2)cc1Nc1ncnc2c(N)nc(N3CCCN(c4ncccn4)CC3)nc12 [II-16]	45
Cc1ccc(NC(=O)c2cccc(C(F)(F)F)c2)cc1Nc1ncnc2c(N)nc(N3CCN(C(C)C)CC3)nc12 [II-17]	13
Cc1ccc(NC(=O)c2cccc(C(F)(F)F)c2)cc1Nc1ncnc2c(N)nc(N3CC4CC3CN4C)nc12 (centres unmarked) [II-18]	9
Cc1ccc(NC(=O)c2cccc(C(F)(F)F)c2)cc1Nc1ncnc2c(N)nc(N3CCNCC3)nc12 [II-19]	9
COc1ccc(NC(=O)c2ccc(C)c(Nc3ncnc4cnc(N5CCN(C)CC5)nc34)c2)cc1C(F)(F)F [III-1]	2
COc1ccc(NC(=O)c2ccc(C)c(Nc3ncnc4cnc(N5CCOCC5)nc34)c2)cc1C(F)(F)F [III-2]	< 1
Cc1ccc(C(=O)NCc2cccc(C(C)(C)C)c2)cc1Nc1ncnc2cnc(N(C)CCN(C)C)nc12 [III-3]	118
COCCN(C)c1ncc2ncnc(Nc3cc(C(=O)Nc4ccc(OC)c(C(F)(F)F)c4)ccc3Cl)c2n1 [III-4]	2
COc1ccc(NC(=O)c2ccc(Cl)c(Nc3ncnc4cnc(N(C)CCN(C)C)nc34)c2)cc1C(F)(F)F [III-5]	2
COc1ccc(NC(=O)c2ccc(Cl)c(Nc3ncnc4cnc(N5CCCCCC5)nc34)c2)cc1C(F)(F)F [III-6]	7
COc1ccc(NC(=O)c2ccc(Cl)c(Nc3ncnc4cnc(N5CCCN(C)CC5)nc34)c2)cc1C(F)(F)F [III-7]	1

SMILES	IC50 [nM]
COc1ccc(NC(=O)c2ccc(Cl)c(Nc3ncnc4cnc(N(C)CCN5CCCC5)nc34)c2)cc1C(F)(F)F [III-8]	3
COc1ccc(NC(=O)c2ccc(Cl)c(Nc3ncnc4cnc(N5CCN(C)CC5)nc34)c2)cc1C(F)(F)F [III-9]	7
COc1ccc(NC(=O)c2ccc(Cl)c(Nc3ncnc4cnc(N5CCCCC5)nc34)c2)cc1C(F)(F)F [III-10]	6
COc1ccc(NC(=O)c2ccc(Cl)c(Nc3ncnc4cnc(NCCCN5CCOCC5)nc34)c2)cc1C(F)(F)F [III-11]	4
COc1ccc(NC(=O)c2ccc(Cl)c(Nc3ncnc4cnc(N5CCOCC5)nc34)c2)cc1C(F)(F)F [III-12]	2
COc1ccc(NC(=O)c2ccc(Cl)c(Nc3ncnc4cnc(N5CCCC5)nc34)c2)cc1C(F)(F)F [III-13]	9
COc1ccc(NC(=O)c2ccc(Cl)c(Nc3ncnc4cnc(NCCN(C)C)nc34)c2)cc1C(F)(F)F [III-14]	3
COc1ccc(NC(=O)c2ccc(Cl)c(Nc3ncnc4cnc(NCCN5CCOCC5)nc34)c2)cc1C(F)(F)F [III-15]	5
COc1ccc(NC(=O)c2ccc(Cl)c(Nc3ncnc4cnc(N(C)C)nc34)c2)cc1C(F)(F)F [III-16]	2
COCCN(C)c1ncc2ncnc(Nc3cc(C(=O)Nc4ccc(OC)c(C(F)(F)F)c4)ccc3OC)c2n1 [III-17]	3
COc1ccc(C(=O)Nc2ccc(OC)c(C(F)(F)F)c2)cc1Nc1ncnc2cnc(N(C)CCN(C)C)nc12 [III-18]	4
COc1ccc(C(=O)Nc2ccc(OC)c(C(F)(F)F)c2)cc1Nc1ncnc2cnc(N3CCCCCC3)nc12 [III-19]	1
COc1ccc(C(=O)Nc2ccc(OC)c(C(F)(F)F)c2)cc1Nc1ncnc2cnc(N3CCCN(C)CC3)nc12 [III-20]	3
COc1ccc(C(=O)Nc2ccc(OC)c(C(F)(F)F)c2)cc1Nc1ncnc2cnc(N(C)CCN3CCCC3)nc12 [III-21]	3
COc1ccc(C(=O)Nc2ccc(OC)c(C(F)(F)F)c2)cc1Nc1ncnc2cnc(N3CCN(C)CC3)nc12 [III-22]	6
COc1ccc(C(=O)Nc2ccc(OC)c(C(F)(F)F)c2)cc1Nc1ncnc2cnc(N3CCCCC3)nc12 [III-23]	7
COc1ccc(C(=O)Nc2ccc(OC)c(C(F)(F)F)c2)cc1Nc1ncnc2cnc(NCCCN3CCOCC3)nc12 [III-24]	5
COc1ccc(C(=O)Nc2ccc(OC)c(C(F)(F)F)c2)cc1Nc1ncnc2cnc(N3CCOCC3)nc12 [III-25]	2
COc1ccc(C(=O)Nc2ccc(OC)c(C(F)(F)F)c2)cc1Nc1ncnc2cnc(N3CCCC3)nc12 [III-26]	24
COc1ccc(C(=O)Nc2ccc(OC)c(C(F)(F)F)c2)cc1Nc1ncnc2cnc(NCCN(C)C)nc12 [III-27]	8

SMILES	IC50 [nM]
COc1ccc(C(=O)Nc2ccc(OC)c(C(F)(F)F)c2)cc1Nc1ncnc2cnc(NCCN3CCOCC3)nc12 [III-28]	3
COc1ccc(C(=O)Nc2ccc(OC)c(C(F)(F)F)c2)cc1Nc1ncnc2cnc(N(C)C)nc12 [III-29]	2
COCCN(C)c1ncc2ncnc(Nc3cc(C(=O)Nc4ccc(OC)c(C(F)(F)F)c4)ccc3F)c2n1 [III-30]	2
COc1ccc(NC(=O)c2ccc(F)c(Nc3ncnc4cnc(N(C)CCN(C)C)nc34)c2)cc1C(F)(F)F [III-31]	< 1
COc1ccc(NC(=O)c2ccc(F)c(Nc3ncnc4cnc(N5CCCCCC5)nc34)c2)cc1C(F)(F)F [III-32]	1
COc1ccc(NC(=O)c2ccc(F)c(Nc3ncnc4cnc(N(C)CCN5CCCC5)nc34)c2)cc1C(F)(F)F [III-33]	1
COc1ccc(NC(=O)c2ccc(F)c(Nc3ncnc4cnc(N5CCN(C)CC5)nc34)c2)cc1C(F)(F)F [III-34]	2
COc1ccc(NC(=O)c2ccc(F)c(Nc3ncnc4cnc(N5CCCCC5)nc34)c2)cc1C(F)(F)F [III-35]	5
COc1ccc(NC(=O)c2ccc(F)c(Nc3ncnc4cnc(NCCCN5CCOCC5)nc34)c2)cc1C(F)(F)F [III-36]	3
COc1ccc(NC(=O)c2ccc(F)c(Nc3ncnc4cnc(N5CCOCC5)nc34)c2)cc1C(F)(F)F [III-37]	4
COc1ccc(NC(=O)c2ccc(F)c(Nc3ncnc4cnc(N5CCCC5)nc34)c2)cc1C(F)(F)F [III-38]	5
COc1ccc(NC(=O)c2ccc(F)c(Nc3ncnc4cnc(NCCN(C)C)nc34)c2)cc1C(F)(F)F [III-39]	2
COc1ccc(NC(=O)c2ccc(F)c(Nc3ncnc4cnc(NCCN5CCOCC5)nc34)c2)cc1C(F)(F)F [III-40]	2
COc1ccc(NC(=O)c2ccc(F)c(Nc3ncnc4cnc(N(C)C)nc34)c2)cc1C(F)(F)F [III-41]	1
COCCN(C)c1ncc2ncnc(Nc3cc(C(=O)Nc4ccc(OC)c(C(F)(F)F)c4)ccc3C(F)(F)F)c2n1 [III-42]	64
COc1ccc(NC(=O)c2ccc(C(F)(F)F)c(Nc3ncnc4cnc(N(C)CCN(C)C)nc34)c2)cc1C(F)(F)F [III-43]	972
COc1ccc(NC(=O)c2ccc(C(F)(F)F)c(Nc3ncnc4cnc(N5CCCCCC5)nc34)c2)cc1C(F)(F)F [III-44]	> 2000
COc1ccc(NC(=O)c2ccc(C(F)(F)F)c(Nc3ncnc4cnc(N5CCCN(C)CC5)nc34)c2)cc1C(F)(F)F [III-45]	283
COc1ccc(NC(=O)c2ccc(C(F)(F)F)c(Nc3ncnc4cnc(N(C)CCN5CCCC5)nc34)c2)cc1C(F)(F)F [III-46]	451
